Where only a bound is given, the exact number is not on record here.

The test concerns Staphylococcus aureus. Briefly: Antibacterial activity against methicillin-susceptible Staphylococcus aureus ATCC 29213. The format is functional.

`Br.CC(=O)NC[C@H]1CN(c2ccc(C3Cc4cc(O)c(O)cc4CN3)cc2)C(=O)O1` (stereo partly specified): the MIC was over 64 µg/mL.
